# From patent US6537990B1, “Combined preparations comprising morpholine anthracyclines and anticancer agent” (priority 1999, dated 2003)
# Values joined by “and” are separate entries in the source; they are usually repeats but may differ in a detail not shown here. Equal entries are not always repeated. Structures can show the parent of a compound that is named as a salt. Where two headings read alike, the source gives them in different places.
# Tests used:
# [1] = test system: tumor cells resistant to anthracyclines and presenting the mdr phenotype; settings: in vitro and in vivo; cited from earlier work
# [2] = test system: tumor cells resistant to L-PAM, cisplatin (cDDP), CTX or Topoisomerase II inhibitors; settings: cited from earlier work
# [3] = test system: disseminated L1210 murine leukemia; assay: Antileukemic activity against disseminated L1210 murine leukemia; type: in vivo, CD2F1 mice
# [4] = in vivo; cited from earlier work
smiles,measurement,setting,value
"CCC1(O)CC(OC2CC(N3CCOCC3)C(O)C(C)O2)c2c(O)c3c(c(O)c2C1O)C(=O)c1cccc(O)c1C3=O (stereo not drawn) [MX2, 3′-deamino-3′(4-morpholinyl)-13-deoxo-10-hydroxy-carminomycin]",Activity on tumor cells resistant to anthracyclines and presenting the mdr phenotype,[1],active
same,Cross-resistance on resistant tumor cells,"[2]; tumor cells resistant to CTX, L-Pam and cDDP",No cross-resistance
"COc1cccc2c1C(=O)c1c(O)c3c(c(O)c1C2=O)C[C@@](O)(C(=O)CO)C[C@@H]3O[C@H]1C[C@H](N2CCO[C@H](OC)C2)[C@H](O)[C@H](C)O1 [PNU-152243, 3′deamino-3′(2-methoxy-4-morpholinyl)doxorubicin. HCl]",ILS % (Increased in Life Span),"[3]; PNU-152243 alone, 0.05 mg/Kg/day iv, days +1, 2",50%
same,Tox (Number of toxic deaths/number of mice),"[3]; PNU-152243 alone, 0.05 mg/Kg/day iv, days +1, 2, HCl, 0.05 mg/kg/day",0/10
same,Tox (Number of toxic deaths/number of mice),"[3]; PNU-152243 alone, 0.05 mg/Kg/day iv, days +1, 2, listed as PNU 152243, HCl, 0.05 mg/kg/day",without toxicity
same,Activity on tumor cells resistant to anthracyclines and presenting the mdr phenotype,[1],active
same,Cross-resistance on resistant tumor cells,"[2]; tumor cells resistant to L-PAM or cisplatin (cDDP), or to Topoisomerase II inhibitors (at-multidrug resistant)",No cross-resistance
same,"Optimal i.v. dose, fold less than that of doxorubicin",[4],at least 80 fold
"[NH2][Pt]([NH2])([Cl])[Cl] [cDDP, cisplatin]",ILS % (Increased in Life Span),"[3]; cDDP alone, 5.9 mg/Kg/day iv, day +3",33%
same,Tox (Number of toxic deaths/number of mice),"[3]; cDDP alone, 5.9 mg/Kg/day iv, day +3, 5.9 mg/kg/day",without toxicity and 0/10
same,ILS % (Increased in Life Span),"[3]; cDDP alone, 7.7 mg/Kg/day iv, day +3",33%
same,Tox (Number of toxic deaths/number of mice),"[3]; cDDP alone, 7.7 mg/Kg/day iv, day +3, 7.7 mg/kg/day",without toxicity and 0/10
